Measurements from patent publication US20190030042A1, “Method for Treating Dementia with Lewy Bodies” (BrainX CORPORATION, priority 2017, published 2019).

Test system: DLB rats
Assay: Object recognition test in DLB rats
Format: in vivo, rat
Settings: group A3, 100 mg/kg/day IP for 27 days, test on 27th day, p<0.05
Procedure: Saline is also used to be administrated to the normal rats of group A1.
Recognition ability of the rats of groups A1-A3 is measured using the object recognition test (Ho et al., Behav Brain Res 268: 177-184, 2014). Specifically, on the 25th & 26th day, the rat “M” under the test is placed in an open box, shown as FIG. 2a, for 5 minutes. Three flavorless objects (objects O1, O2 & O3) with the same size, color, shape and material are respectively fixed at three corners of the open box.
On the 27th day, the rat “M” under the test is first placed in the open box shown as FIG. 2a, and the time spent exploring the object O1 (T01) and the total time spent exploring the objects O1, O2 & O3 (TO1+O2+O3) are recorded, respectively. The percentage of the exploration time spent on the object O1 is calculated as (TO1/TO1+O2+O3)*100%. After 5 minutes, a novel object O4 with different size, color, shape and material is used to replace the object O1 (shown in FIG. 2b), and the rat “M” under the test is placed in the open box. The time spent exploring the novel object O4 (TO4) and the total time spent exploring the objects O2 & O3 and the novel object O4 (TO2+O3+O4) are respectively recorded, and the percentage of the exploration time spent on the novel object O4 is calculated as (TO4/TO2+O3+O4)*100%.

CO/N=C(\C(=O)N[C@@H]1C(=O)N2C(C(=O)O)=C(CSc3nc(=O)c(=O)[nH]n3C)CS[C@H]12)c1csc(N)n1 [ceftriaxone]
recognition of the novel object O4 (percentage of time exploring object): can recognize the novel object O4
